Measurements taken from patent US20170368082A1, “FORMULATIONS OF BRINCIDOFOVIR” (priority 2016, published 2017).
Where two headings read alike, the source gives them in different places.

Experiments:
[1] = 7-day dose range-finding study, 2-hour IV infusion (Phase 2): toxicity; type: in vivo, Sprague-Dawley CD rats
Procedure: For Phase 2, Sprague-Dawley CD® rats (5/sex/group) were dosed with brincidofovir via 2-hour IV infusion with 0 [2× sodium phosphate buffer solution (400 mM, pH 8.0±0.04)], 1 or 15 mg/kg on Days 1, 4 and 7. The dose volume was 10 mL/kg/hr for all groups. At the end of the Phase 2 treatment period, all animals were euthanized and necropsied. Phase 2 satellite animals (3/sex/Group 1 and 6/sex/Group 2-3) were similarly dosed and blood samples collected on Days 1 and 7 for toxicokinetic analysis of brincidofovir and one of its metabolites, cidofovir.
For Phase 2 (DRF), the test and control articles were administered, via intravenous 2-hour IV infusion to rats on Days 1, 4, and 7.
During Phase 2, each animal received brincidofovir administrations via intravenous infusion (2-hours) on Days 1, 4 and 7. Animals were maintained on sterile saline at a rate of 0.5 mL/hour between doses. Catheters were tied off after the completion of dose administration on Day 7 (a knot was placed in the catheter and the catheter was receded under the skin) and jackets were removed.
Blood obtained via the orbital sinus (retrobulbar venous plexus) as a terminal procedure under light isoflurane anesthesia was used to analyze hematology and clinical chemistry parameters for all animals at termination of dosing. Animals were fasted overnight prior to blood collection. Animals were not allowed to recover from anesthesia after blood collection.
Blood samples (approximately 0.25 mL) were collected into tubes containing K2EDTA anticoagulant and analyzed for the following using a Siemens ADVIA 120 Hematology Analyzer: Hemoglobin concentration (HGB); Hematocrit (HCT); Erythrocyte count (RBC); Platelet count (PLT); Mean corpuscular volume (MCV); Mean corpuscular hemoglobin (MCH); Mean corpuscular hemoglobin concentration (MCHC); Red cell distribution width (RDW); Total leukocyte count (WBC); Reticulocyte count (RETIC); Differential leukocyte count (Manual differential leukocyte counts were performed for verification and absolute values were calculated if necessary); Neutrophils (ANEU); Lymphocytes (ALYM); Eosinophils (AEOS); Basophils (ABASO); Monocytes (AMONO); Large unstained cells (ALUC);
Blood samples (approximately 1 mL) were collected into tubes with no anticoagulant, allowed to clot, centrifuged to obtain serum and analyzed for the following using a Siemens ADVIA 1800 Chemistry Analyzer: Aspartate aminotransferase (AST) (Kinetic—Modified Bergmeyer); Alanine aminotransferase (ALT) (Kinetic—Modified Bergmeyer); Alkaline phosphatase (ALKP) (Kinetic—Tietz AMP Buffer); Blood urea nitrogen (BUN) (Enzymatic Roch-Ramek with Urease); Creatinine (CREAT) (Jaffe Picric Acid in Alkaline Medium); Glucose (GLU) (Glucose Hexokinase II Method); Cholesterol (CHOL) (Enzymatic esterase/oxidase Trinder Endpoint); Triglycerides (TRIG) (Fossati Three Step Enzymatic—Trinder Endpoint); Total protein (TP) (Biuret Technique); Albumin (ALB) (Bromocresol Green Method); Total bilirubin (TBILI) (Oxidation with Vandate); Sodium (NA^+) (Ion Selective Electrode); Potassium (K^+) (Ion Selective Electrode); Chloride (Cr) (Ion Selective Electrode); Calcium (Ca′) (Michaylova & Ilkova, Arsenazo III); Inorganic phosphorus (PHOS) (Phosphomolybdate—UV Method).
Complete macroscopic examinations were performed on all Phase 2 main study animals. The macroscopic examination included examination of the external surface and all orifices; the external surfaces of the brain and spinal cord; the organs and tissues of the cranial, thoracic, abdominal and pelvic cavities and neck; and the remainder of the carcass for the presence of macroscopic morphologic abnormalities. Animals were discarded after examination; no tissues were collected or preserved.

[2] = Comparison of toxicity of orally and intravenously administered brincidofovir (rat intestine); type: in vivo; details: for AUC / Cmax: rat, in vivo; for AUC: read-out: Exposure AUC; for Cmax: read-out: Exposure Cmax
Source text: As shown in the figures, IV administration of brincidofovir is more well-tolerated in the intestine.

[3] = Preclinical infusion system assembly (rats) compatibility; type: physicochemical; details: 0.2 mg/mL (Test #1)
Procedure: The compatibility of the following brincidofovir formulations with an infusion system assembly for dosing of rats (consisting of a syringe, tether, catheter and syringe pump) was tested
a.) 0.2 mg/mL brincidofovir, 4 mM sodium phosphate, pH˜8.0, approx. 4.90% dextrose; b.) 1.5 mg/mL brincidofovir, 30 mM sodium phosphate, pH-8.0, approx. 4.25% dextrose.
Both solutions were prepared via dilution of the developed brincidofovir formulation (10 mg/mL brincidofovir, 200 mM sodium phosphate, pH=8.0) with a 5% dextrose solution. The testing procedure can be summarized as follows: • 1. The appearance, pH, and c(BCV) of the bulk testing solutions (0.2 mg/mL BCV, 4 mM sodium phosphate, pH-8.0, approx. 4.90% dextrose, and 1.5 mg/mL BCV, 30 mM sodium phosphate, pH˜8.0, approx. 4.25% dextrose were assessed pre-contact. • 2. Approximately 5 mL of the testing solution was drawn into a syringe which was then connected to the assembled infusion system (Vascular Access Harness (VAH) tether kit, the VAH port for rat jacket, and catheter). • 3. The infusion system was manually filled with the testing solution. Approximately 200 μL of the testing solution were pushed out of the infusion system and collected as an end-of-line sample (to) for the assessments of appearance and c(BCV). • 4. The syringe of the testing infusion system was mounted onto the syringe pump, and a flow rate was set to a flow of 1.2 mL/h ([…]) for a total dispensing volume of 2.4 mL (120 min). • 5. The entire flow-through was collected over the course of the experiment. At the respective time points (t10min, t105 min), end-of-line samples (approx. 200 μL) were collected for analysis. • 6. The pH of the bulk flow-through was measured at the end of the experiment (t120 min), since the volume of samples acquired from previous time points (200 μL) was too small for a standard pH measurement.

[4] = Sprague-Dawley CD, IV, repeat dose 1 mg/kg
[5] = Sprague-Dawley CD, IV, repeat dose 4 mg/kg
[6] = Sprague-Dawley CD, IV, repeat dose 15 mg/kg

For `CCCCCCCCCCCCCCCCOCCCOP(=O)(O)CO[C@H](CO)Cn1ccc(N)nc1=O` [Brincidofovir], the Tolerability ([1]; 1 and 15 mg/kg/day, Days 1, 4 and 7) was “well tolerated”, the Clinical signs ([1]; 1 or 15 mg/kg/day) was “did not result in any brincidofovir-related clinical signs” and the “Decrease in red cell mass vs controls (to)” value ([1]; end of 7-day dosing phase) was −4.2%. For the same compound, the “Change in reticulocytes vs controls” value ([1]; females, 15 mg/kg) was −30%, the “Change in urea (BUN) vs controls” value ([1]; females, 15 mg/kg) was “+29%” and the “Change in total calcium vs controls” value ([1]; females, ≧1 mg/kg) was “+4.9%”. For the same compound, the “Change in MCHC vs controls” value ([1]; males, 15 mg/kg) was “+2.1%”, the “Change in total calcium vs controls” value ([1]; males, 15 mg/kg) was “+3.8%” and the “Change in reticulocytes vs controls” value ([1]; males, 15 mg/kg, Days 1, 4, 7) was −33%. For the same compound, the Intestinal finding ([2]; IV administration) was “minimal single-cell effects”, the “Preliminary Findings” value ([2]; IV, repeat dose 1 mg/kg) was “No GI findings” and the AUC [2, 4] was 0.41 µg·h/mL. The Cmax [2, 4] was 0.298 µg/mL, the AUC [2, 5] was 2.76 µg·h/mL and the Cmax [2, 5] was 1.2 µg/mL. For the same compound, the AUC [2, 6] was 9.89 µg·h/mL, the Cmax [2, 6] was 4.5 µg/mL and the Intestinal finding ([2]; oral administration) was “significant loss of epithelium in intestinal villi”. The mortality ([2]; oral, single dose 100 mg/kg) was 38% mortality, the mortality ([2]; oral, single dose 300 mg/kg) was 100% mortality and the AUC ([2]; oral, single dose 30 mg/kg) was 5.56 µg·h/mL. It also gave a Cmax ([2]; oral, single dose 30 mg/kg) of 0.426 µg/mL, an AUC ([2]; oral, single dose 100 mg/kg) of 13.6 µg·h/mL and a Cmax ([2]; oral, single dose 100 mg/kg) of 1.09 µg/mL. It also gave an AUC ([2]; oral, single dose 300 mg/kg) of 20.5 µg·h/mL, a Cmax ([2]; oral, single dose 300 mg/kg) of 1.19 µg/mL and an AUC ([2]; oral, single dose 1000 mg/kg) of 26.4 µg·h/mL. The Cmax ([2]; oral, single dose 1000 mg/kg) was 1.38 µg/mL, the Appearance ([3]; pre contact (bulk solution)) was “Clear, colorless” and the “Measured pH” value ([3]; pre contact (bulk solution)) was 8.0. For the same compound, the “Observed c(BCV)” value ([3]; pre contact (bulk solution)) was 0.21 mg/mL, the Appearance ([3]; t0) was “Clear, colorless” and the “Observed c(BCV)” value ([3]; t0) was 0.19 mg/mL. The Appearance ([3]; t10 min) was “Clear, colorless”, the “Observed c(BCV)” value ([3]; t10 min) was 0.16 mg/mL and the Appearance ([3]; t105 min) was “Clear, colorless”. For the same compound, the “Observed c(BCV)” value ([3]; t105 min) was 0.20 mg/mL, the Appearance ([3]; t120 min (bulk solution)) was “Clear, colorless” and the “Measured pH” value ([3]; t120 min (bulk solution)) was 8.0.
